Results published in ChEMBL document CHEMBL6103591, “Discovery of naphthoquinone-furo-piperidone derivatives as dual targeting agents of STAT3 and NQO1 for the treatment of breast cancer” (Eur J Med Chem, 2025).

Columns and labels:
[1] = Toxicity in female BALB/c nude mouse xenografted with human MDA-MB-231 cells assessed as morphological change in spleen at 5 to 10 mg/kg, ip administered daily and measured every 2 days for 21 days by hematoxylin and eosin staining based analysis; type: organism-based; conditions: in vivo, 504 h, dose 5-10 mg/kg, time 21 day
[2] = Toxicity in female BALB/c nude mouse xenografted with human MDA-MB-231 cells assessed as morphological change in heart at 5 to 10 mg/kg, ip administered daily and measured every 2 days for 21 days by hematoxylin and eosin staining based analysis; type: organism-based; conditions: in vivo, 504 h, dose 5-10 mg/kg, time 21 day
MDA-MB-231 [3] = assay: Antitumor activity against human MDA-MB-231 cells xenografted in female BALB/c nude mouse assessed as tumor growth inhibition at 5 mg/kg, ip administered daily and measured every 2 days for 21 days relative to control; type: functional; conditions: MDA-MB-231, 504 h, time 21 day, read-out: TGI
[4] = Toxicity in female BALB/c nude mouse xenografted with human MDA-MB-231 cells assessed as morphological change in liver at 5 to 10 mg/kg, ip administered daily and measured every 2 days for 21 days by hematoxylin and eosin staining based analysis; type: organism-based; conditions: in vivo, 504 h, dose 5-10 mg/kg, time 21 day
[5] = Toxicity in female BALB/c nude mouse xenografted with human MDA-MB-231 cells assessed as body weight loss at 5 to 10 mg/kg, ip administered daily and measured every 2 days for 21 days; type: organism-based; conditions: in vivo, 504 h, dose 5-10 mg/kg, time 21 day
[6] = Toxicity in female BALB/c nude mouse xenografted with human MDA-MB-231 cells assessed as morphological change in lung at 5 to 10 mg/kg, ip administered daily and measured every 2 days for 21 days by hematoxylin and eosin staining based analysis; type: organism-based; conditions: in vivo, 504 h, dose 5-10 mg/kg, time 21 day
MDA-MB-231 [7] = assay: Antitumor activity against human MDA-MB-231 cells xenografted in female BALB/c nude mouse assessed as tumor growth inhibition at 10 mg/kg, ip administered daily and measured every 2 days for 21 days relative to control; type: functional; conditions: MDA-MB-231, 504 h, time 21 day, read-out: TGI
[8] = Toxicity in female BALB/c nude mouse xenografted with human MDA-MB-231 cells assessed as morphological change in kidney at 5 to 10 mg/kg, ip administered daily and measured every 2 days for 21 days by hematoxylin and eosin staining based analysis; type: organism-based; conditions: in vivo, 504 h, dose 5-10 mg/kg, time 21 day

With Cl.O=C1C(=O)c2c(oc3c2CCN(CCN2CCCCC2)C3=O)-c2ccccc21 the Activity [1] was “Non-toxic”, the Activity [2] was “Non-toxic” and the inhibition in vivo at 5 mg/kg (MDA-MB-231 [3]) was 28.9%. For the same compound, the Activity [4] was “Non-toxic”, the Activity [5] was “Non-toxic” and the Activity [6] was “Non-toxic”. The inhibition in vivo at 10 mg/kg (MDA-MB-231 [7]) was 56.8% and the Activity [8] was “Non-toxic”.
